Tests used:
Type in all cases: functional
[1] = system: EKVX; assay: Antitumor activity against human EKVX cells assessed as cell growth at 10 uM after 48 hrs by sulforhodamine B assay; details: read-out: Activity
[2] = system: HOP-62; assay: Antitumor activity against human HOP62 cells assessed as cell growth at 10 uM after 48 hrs by sulforhodamine B assay; details: HOP-62, 48 h, read-out: Activity
[3] = system: NCI-H226; assay: Antitumor activity against human NCI-H226 cells assessed as cell growth at 10 uM after 48 hrs by sulforhodamine B assay; details: NCI-H226, 48 h, read-out: Activity
[4] = system: NCI-H23; assay: Antitumor activity against human NCI-H23 cells assessed as cell growth at 10 uM after 48 hrs by sulforhodamine B assay; details: NCI-H23, 48 h, read-out: Activity
[5] = system: NCI-H522; assay: Antitumor activity against human NCI-H522 cells assessed as cell growth at 10 uM after 48 hrs by sulforhodamine B assay; details: NCI-H522, 48 h, read-out: Activity
[6] = system: HCT-116; assay: Antitumor activity against human HCT116 cells assessed as cell growth at 10 uM after 48 hrs by sulforhodamine B assay; details: HCT-116, 48 h, read-out: Activity
[7] = system: HCT-15; assay: Antitumor activity against human HCT15 cells assessed as cell growth at 10 uM after 48 hrs by sulforhodamine B assay; details: HCT-15, 48 h, read-out: Activity
[8] = system: HT-29; assay: Antitumor activity against human HT-29 cells assessed as cell growth at 10 uM after 48 hrs by sulforhodamine B assay; details: HT-29, 48 h, read-out: Activity
[9] = system: KM12; assay: Antitumor activity against human KM12 cells assessed as cell growth at 10 uM after 48 hrs by sulforhodamine B assay; details: KM12, 48 h, read-out: Activity
[10] = system: SW-620; assay: Antitumor activity against human SW620 cells assessed as cell growth at 10 uM after 48 hrs by sulforhodamine B assay; details: SW-620, 48 h, read-out: Activity
[11] = system: MDA-MB-231; assay: Antitumor activity against human MDA-MB-231 cells assessed as cell growth at 10 uM after 48 hrs by sulforhodamine B assay; details: MDA-MB-231, 48 h, read-out: Activity
[12] = system: MDA-MB-468; assay: Antitumor activity against human MDA-MB-468 cells assessed as cell growth at 10 uM after 48 hrs by sulforhodamine B assay; details: MDA-MB-468, 48 h, read-out: Activity
[13] = system: NCI/ADR-RES; assay: Antitumor activity against human NCI/ADR-RES cells assessed as cell growth at 10 uM after 48 hrs by sulforhodamine B assay; details: read-out: Activity
[14] = system: T47D; assay: Antitumor activity against human T47D cells assessed as cell growth at 10 uM after 48 hrs by sulforhodamine B assay; details: read-out: Activity
[15] = system: IGROV-1; assay: Antitumor activity against human IGROV1 cells assessed as cell growth at 10 uM after 48 hrs by sulforhodamine B assay; details: IGROV-1, 48 h, read-out: Activity
[16] = system: OVCAR-4; assay: Antitumor activity against human OVCAR4 cells assessed as cell growth at 10 uM after 48 hrs by sulforhodamine B assay; details: OVCAR-4, 48 h, read-out: Activity
[17] = system: OVCAR-5; assay: Antitumor activity against human OVCAR5 cells assessed as cell growth at 10 uM after 48 hrs by sulforhodamine B assay; details: OVCAR-5, 48 h, read-out: Activity
[18] = system: HL-60(TB); assay: Antitumor activity against human HL-60(TB) cells assessed as cell growth at 10 uM after 48 hrs by sulforhodamine B assay; details: HL-60, 48 h, read-out: Activity
[19] = system: MOLT-4; assay: Antitumor activity against human MOLT4 cells assessed as cell growth at 10 uM after 48 hrs by sulforhodamine B assay; details: MOLT-4, 48 h, read-out: Activity
[20] = system: A498; assay: Antitumor activity against human A498 cells assessed as cell growth at 10 uM after 48 hrs by sulforhodamine B assay; details: A498, 48 h, read-out: Activity
[21] = system: ACHN; assay: Antitumor activity against human ACHN cells assessed as cell growth at 10 uM after 48 hrs by sulforhodamine B assay; details: read-out: Activity
[22] = system: RXF 393; assay: Antitumor activity against human RXF393 cells assessed as cell growth at 10 uM after 48 hrs by sulforhodamine B assay; details: RXF 393, 48 h, read-out: Activity
[23] = system: SN12C; assay: Antitumor activity against human SN12C cells assessed as cell growth at 10 uM after 48 hrs by sulforhodamine B assay; details: read-out: Activity
[24] = system: UO-31; assay: Antitumor activity against human UO31 cells assessed as cell growth at 10 uM after 48 hrs by sulforhodamine B assay; details: UO-31, 48 h, read-out: Activity
[25] = system: Malme-3M; assay: Antitumor activity against human MALME-3M cells assessed as cell growth at 10 uM after 48 hrs by sulforhodamine B assay; details: read-out: Activity
[26] = system: SK-MEL-2; assay: Antitumor activity against human SK-MEL-2 cells assessed as cell growth at 10 uM after 48 hrs by sulforhodamine B assay; details: SK-MEL-2, 48 h, read-out: Activity
[27] = system: SK-MEL-28; assay: Antitumor activity against human SK-MEL-28 cells assessed as cell growth at 10 uM after 48 hrs by sulforhodamine B assay; details: SK-MEL-28, 48 h, read-out: Activity
[28] = system: UACC-257; assay: Antitumor activity against human UACC257 cells assessed as cell growth at 10 uM after 48 hrs by sulforhodamine B assay; details: UACC-257, 48 h, read-out: Activity
[29] = system: UACC-62; assay: Antitumor activity against human UACC62 cells assessed as cell growth at 10 uM after 48 hrs by sulforhodamine B assay; details: UACC-62, 48 h, read-out: Activity
[30] = system: PC-3; assay: Antitumor activity against human PC3 cells assessed as cell growth at 10 uM after 48 hrs by sulforhodamine B assay; details: PC-3, 48 h, read-out: Activity
[31] = system: SNB-19; assay: Antitumor activity against human SNB19 cells assessed as cell growth at 10 uM after 48 hrs by sulforhodamine B assay; details: SNB-19, 48 h, read-out: Activity
[32] = system: U-251; assay: Antitumor activity against human U251 cells assessed as cell growth at 10 uM after 48 hrs by sulforhodamine B assay; details: U-251, 48 h, read-out: Activity
[33] = system: Rattus norvegicus; assay: Antiinflammatory activity in Wister albino rat assessed as inhibition of carrageenan-induced paw oedema at 50 mg/kg, ip administered 1 hr before carrageenan challenge measured after 1 hr of induction of inflammation relative to control; details: route intraperitoneal
[34] = system: Rattus norvegicus; assay: Antiinflammatory activity in Wister albino rat assessed as inhibition of carrageenan-induced paw oedema at 50 mg/kg, ip administered 1 hr before carrageenan challenge measured after 4 hrs of induction of inflammation relative to control; details: route intraperitoneal
[35] = system: Rattus norvegicus; assay: Antiinflammatory activity in Wister albino rat assessed as inhibition of carrageenan-induced paw oedema at 50 mg/kg, ip administered 1 hr before carrageenan challenge measured after 24 hrs of induction of inflammation relative to control; details: route intraperitoneal
[36] = system: Rattus norvegicus; assay: Antiinflammatory activity in Wister albino rat assessed as inhibition of carrageenan-induced paw oedema at 50 mg/kg, ip administered 1 hr before carrageenan challenge measured after 4 hrs of induction of inflammation relative to indomethacin; details: route intraperitoneal

| SMILES | growth at 10 µM [1] | growth at 10 µM [2] | growth at 10 µM [3] | growth at 10 µM [4] | growth at 10 µM [5] | growth at 10 µM [6] | growth at 10 µM [7] | growth at 10 µM [8] | growth at 10 µM [9] | growth at 10 µM [10] | growth at 10 µM [11] | growth at 10 µM [12] | growth at 10 µM [13] | growth at 10 µM [14] | growth at 10 µM [15] | growth at 10 µM [16] | growth at 10 µM [17] | growth at 10 µM [18] | growth at 10 µM [19] | growth at 10 µM [20] | also measured |
| --- | --- | --- | --- | --- | --- | --- | --- | --- | --- | --- | --- | --- | --- | --- | --- | --- | --- | --- | --- | --- | --- |
| CN1C/C(=C\c2ccc(Cl)cc2)C(=O)[C@]2(C1)[C@@H](c1ccc(Cl)cc1)CN(C)[C@@]21C(=O)N(C)c2ccccc21 | 42.1% | 71% | 58.6% | 33.9% | 56.4% | 29.9% | 76.2% | 68.4% | 78.7% | 68.1% | 70.4% | 66.9% | 56.9% | 46.7% | 92.1% | 43.1% | 87.7% | 16.6% | 43.2% | 69.4% | growth at 10 µM [21]: 57.5%; growth at 10 µM [22]: 67.2%; growth at 10 µM [23]: 62.9%; growth at 10 µM [24]: 56.6%; growth at 10 µM [25]: 73.5%; growth at 10 µM [26]: 71.9%; growth at 10 µM [27]: 104%; growth at 10 µM [28]: 72%; growth at 10 µM [29]: 59.9%; growth at 10 µM [30]: 32.5%; growth at 10 µM [31]: 77.3%; growth at 10 µM [32]: 68.6%; inhibition in vivo at 50 mg/kg [33]: 82.3%; inhibition in vivo at 50 mg/kg [34]: 45.7%; inhibition in vivo at 50 mg/kg [35]: 49.3%; inhibition in vivo at 50 mg/kg [36]: 80.9% |
| CN1C/C(=C\c2ccc(Cl)cc2)C(=O)[C@]2(C1)[C@@H](c1ccc(Cl)cc1)CN(C)[C@@]21C(=O)Nc2ccccc21 | 37.2% | 73.6% | 64.4% | 44.8% | 59.8% | 45.9% | 68.5% | 59.5% | 64.2% | 57.7% | 74.9% | 56.6% | 62.1% | 46.1% | 81.8% | 49.6% | 94.2% | 41.6% | 37.4% | 55.3% | growth at 10 µM [21]: 63.6%; growth at 10 µM [22]: 67.5%; growth at 10 µM [23]: 64.1%; growth at 10 µM [24]: 43.2%; growth at 10 µM [25]: 91.9%; growth at 10 µM [26]: 76.2%; growth at 10 µM [27]: 101%; growth at 10 µM [28]: 79.3%; growth at 10 µM [29]: 67.2%; growth at 10 µM [30]: 24.9%; growth at 10 µM [31]: 76.5%; growth at 10 µM [32]: 64.8%; inhibition in vivo at 50 mg/kg [33]: 83.1%; inhibition in vivo at 50 mg/kg [34]: 42.2%; inhibition in vivo at 50 mg/kg [35]: 38.2%; inhibition in vivo at 50 mg/kg [36]: 74.7% |

— ChEMBL document CHEMBL1138574, “Regioselective synthesis and stereochemical structure of anti-tumor active dispiro[3H-indole-3,2'-pyrrolidine-3',3''-piperidine]-2(1H),4''-diones” (2009)
